These results are taken from patent US20130029978A1, “NOVEL ARYL UREA DERIVATIVE” (MOCHIDA PHARMACEUTICAL CO., LTD., priority 2009, published 2013).

For orientation: IC50 means the concentration at which inhibition is half-maximal.

The target of assay [1] is T1, FAAH (Homo sapiens, UniProt O00519).
T1 construct: the U-937 microsomal fraction (final concentration of 6 μg/well) prepared in (1); endogenous in cells; host or cells: U-937 cells (microsomal fraction)
T1 sequence (O00519 1-579): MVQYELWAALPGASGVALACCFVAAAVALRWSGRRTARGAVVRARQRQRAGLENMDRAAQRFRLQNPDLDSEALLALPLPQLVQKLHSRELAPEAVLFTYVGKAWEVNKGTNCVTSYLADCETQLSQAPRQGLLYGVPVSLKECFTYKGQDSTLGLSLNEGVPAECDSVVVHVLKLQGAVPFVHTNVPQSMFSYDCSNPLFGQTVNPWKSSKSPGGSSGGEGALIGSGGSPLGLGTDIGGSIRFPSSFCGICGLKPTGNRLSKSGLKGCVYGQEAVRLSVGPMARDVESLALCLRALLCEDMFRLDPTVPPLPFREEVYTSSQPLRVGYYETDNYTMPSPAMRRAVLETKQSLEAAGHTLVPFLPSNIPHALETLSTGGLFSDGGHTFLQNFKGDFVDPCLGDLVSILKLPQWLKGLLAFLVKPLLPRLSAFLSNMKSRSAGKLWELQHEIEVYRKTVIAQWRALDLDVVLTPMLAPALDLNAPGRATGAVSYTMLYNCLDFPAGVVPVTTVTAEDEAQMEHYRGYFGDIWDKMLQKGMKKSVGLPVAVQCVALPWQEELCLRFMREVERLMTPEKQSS
As to the kind of experiment: In vitro FAAH inhibitory activity using U-937 microsomal fraction (AAMCA substrate, fluorescence). The assay is classed as biochemical. Conditions: 6 μg/well, 120 min incubation at room temperature, read-out: FAAH Inhibitory Activity IC50 U-937 microsome. The procedure:
The cultured U-937 cells were harvested, and 0.33-fold volume of buffer solution (50 mmol/L HEPES-NaOH (pH 7.4), 1 mmol/L EDTA, Complete EDTA-free (Roche Diagnostics)) was added to the cells, which was suspended and homogenized. After ultrasonication, the cells were further homogenized and centrifuged (600 g, 10 mins., 4° C.) to collect the supernatant. The supernatant collected was again centrifuged (12000 g, 20 mins., 4° C.), and the supernatant was ultracentrifuged (100000 g, 60 mins., 4° C.) to collect the precipitates. The precipitates were suspended in a buffer solution (50 mmol/L HEPES-NaOH (pH 7.4), 1 mmol/L EDTA) of 5-fold volume with respect to the wet weight of the precipitates to quantify the protein level with the BCA Protein Assay (PIERCE).
(§1) In a 384 well plate (Corning), were added the dilutions of compounds to be tested in various concentrations with 30 μL of a buffer solution (50 mmol/L HEPES (pH 7.4), 1 mmol/L EDTA, 0.1% bovine serum albumin) and the U-937 microsomal fraction (final concentration of 6 μg/well) prepared in (1) or the rat brain microsomal fraction (final concentration of 4 μg/well) prepared in (2), followed by preincubation for 5 minutes at room temperature. AAMCA (SIGMA, (final concentration of 4 mmol/L) as a substrate was added thereto, and the U-937 microsomal fraction was incubated for 120 minutes and the rat brain microsomal fraction for 30 minutes, at room temperature. Before and after the incubation, fluorescence counts were measured using EnVision 2000 (Perkin Elmer) at an excitation wavelength of 355 nm with an emission wavelength of 460 nm to calculate the difference. The count of the well added with the solvent in place of the compound tested and the count of the well added with no microsome were made 0% and 100%, respectively, and the inhibitory activity of each compound tested was determined.
(§2) The FAAH inhibitory activity of the test compound was expressed by IC50 value. The compound of the present invention showing the IC50 value smaller than 0.1 μmol/L, the compound showing the IC50 value not smaller than 0.1 μmol/L and smaller than 1 μmol/L and the compound showing the IC50 value not smaller than 1 μmol/L were designated as +++, ++ and +, respectively, which are shown in TABLE 1.

Assay [2] addresses T2, FAAH (Rattus norvegicus, UniProt P97612).
T2 construct: the rat brain microsomal fraction (final concentration of 4 μg/well) prepared in (2); from tissue; host or cells: brain of male Sprague-Dawley rats (microsomal fraction)
T2 sequence (P97612 1-579): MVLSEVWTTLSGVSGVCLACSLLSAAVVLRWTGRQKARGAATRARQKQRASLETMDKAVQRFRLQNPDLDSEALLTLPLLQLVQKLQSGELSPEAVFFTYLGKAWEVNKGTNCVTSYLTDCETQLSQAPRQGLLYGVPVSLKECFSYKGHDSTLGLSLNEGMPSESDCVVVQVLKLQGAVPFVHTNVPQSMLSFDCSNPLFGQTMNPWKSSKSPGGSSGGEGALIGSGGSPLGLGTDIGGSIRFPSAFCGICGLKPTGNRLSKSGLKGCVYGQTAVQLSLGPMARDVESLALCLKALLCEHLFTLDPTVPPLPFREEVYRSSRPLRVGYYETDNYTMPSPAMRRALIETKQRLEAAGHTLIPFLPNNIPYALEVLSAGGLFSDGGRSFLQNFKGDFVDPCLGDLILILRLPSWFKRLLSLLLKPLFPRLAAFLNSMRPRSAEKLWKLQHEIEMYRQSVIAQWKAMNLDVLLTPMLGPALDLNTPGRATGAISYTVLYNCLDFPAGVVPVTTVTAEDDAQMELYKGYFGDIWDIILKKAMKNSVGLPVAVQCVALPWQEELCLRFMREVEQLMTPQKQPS
Put plainly: In vitro FAAH inhibitory activity using rat brain microsomal fraction (AAMCA substrate, fluorescence). The assay is classed as biochemical. Particulars: 4 μg/well, 30 min incubation at room temperature, read-out: FAAH Inhibitory Activity IC50 Rat brain microsome. The procedure:
Male Sprague-Dawley (SD) rats of 10 weeks old were sacrificed by decapitation and the brains were removed. To the brains was added a buffer solution (50 mmol/L HEPES (pH 8.0), 1 mmol/L EDTA, 0.32 mol/L sucrose, Complete EDTA-free (Roche Diagnostics)) of 5-fold volume with respect to the brain wet weight, which was homogenized in a Potter homogenizer. The homogenate was centrifuged (9000 g, 10 mins., 4° C.) to collect the supernatant. The supernatant was further ultracentrifuged (105000 g, 60 mins., 4° C.) to collect the precipitates. The precipitates were suspended in a buffer solution (50 mmol/L HEPES (pH 8.0), 1 mmol/L EDTA) of ¼ volume with respect to the wet weight of the precipitates to quantify the protein level with the BCA Protein Assay (PIERCE).
as §1, §2

As for `O=C(Nc1cccnn1)N1CCN(C2CCCOc3cc(C(F)(F)F)ccc32)CC1` (centres unmarked) [Example 10, N-Pyridazin-3-yl-4-[8-(trifluoromethyl)-2,3,4,5-tetrahydrobenz-1-oxepin-5-yl]piperazine-1-carboxamide], the IC50 at FAAH [1] and at FAAH [2] was 0.1 to 1 µM throughout.
Take `CC1(C)CC(N2CCN(C(=O)Nc3cccnn3)CC2)c2ccc(C(F)(F)F)cc2O1` (centres unmarked) [Example 9, N-Pyridazin-3-yl-4-[2,2-dimethyl-7-(trifluoromethyl)-3,4-dihydro-2H-1-benzopyran-4-yl]piperazine-1-carboxamide]: the IC50 is above 1 µM at FAAH [1] and 0.1 to 1 µM on FAAH [2].
The corresponding values for `Cc1ccc(NC(=O)N2CCN(C3CCOc4cc(C(F)(F)F)ccc43)CC2)cn1` (centres unmarked) [Example 18, N-(6-Methyl-pyridine-3-yl)-4-[7-(trifluoromethyl)-3,4-dihydro-2H-1-benzopyran-4-yl]piperazine-1-carboxamide] are below 0.1 µM and 0.1 to 1 µM.
For `O=C(Nc1cccnn1)N1CCN(C2CCOc3ccc(Oc4ccc(C(F)(F)F)cn4)cc32)CC1` (centres unmarked) [Example 5, N-Pyridazin-3-yl-4-[6-[[5-(trifluoromethyl)-2-pyridinyl]oxy]-3,4-dihydro-2H-1-benzopyran-4-yl]piperazine-1-carboxamide], in that order: 0.1 to 1 µM and 0.1 to 1 µM.
The corresponding values for `O=C(Nc1ccccc1)N1CCC(c2noc3cc(F)ccc23)CC1` [Example 1, N-Phenyl-4-(6-fluoro-1,2-benzisoxazo-3-yl)piperidine-1-carboxamide] are 0.1 to 1 µM and above 1 µM.
`O=C(Nc1cnccn1)N1CCN(C2CCOc3cc(C(F)(F)F)ccc32)CC1` (centres unmarked) [Example 52, N-(Pyrazin-2-yl)-4-[7-(trifluoromethyl)-3,4-dihydro-2H-chromen-4-yl]piperazine-1-carboxamide]: the IC50 at FAAH [1] and on FAAH [2] was below 0.1 µM throughout.
In the case of `O=C(Nc1cccnn1)N1CCC(N2CCOc3cc(C(F)(F)F)ccc32)CC1` [Example 24, N-Pyridazin-3-yl-4-[7-(trifluoromethyl)-2,3-dihydro-1,4-benzoxazin-4-yl]piperidine-1-carboxamide], the IC50 was below 0.1 µM on FAAH [1] and 0.1 to 1 µM at FAAH [2].
The corresponding values for `O=C(Nc1nccs1)N1CCN(C2CCOc3cc(C(F)(F)F)ccc32)CC1` (centres unmarked) [Example 22, N-(1,3-Thiazol-2-yl)-4-[7-(trifluoromethyl)-3,4-dihydro-2H-1-benzopyran-4-yl]piper azine-1-carboxamide] are above 1 µM and above 1 µM.
With “N-(6-Methoxypyridazin-2-yl)-4-[7-(trifluoromethyl)-3,4-dihydro-2H-1-benzopyran-4-yl]piperazine-1-carboxamide [Example 21]”, the IC50 at FAAH [1] and on FAAH [2] was 0.1 to 1 µM throughout.
With `O=C(Nc1ccccc1)N1CCN(C2CCOc3cc(C(F)(F)F)ccc32)C(=O)C1` (centres unmarked) [Example 15, N-Phenyl-3-yl-4-[7-(trifluoromethyl)-3,4-dihydro-2H-1-benzopyran-4-yl]-3-oxo-piperazine-1-carboxamide], the IC50 on FAAH [1] and at FAAH [2] was 0.1 to 1 µM throughout.
For `O=C(Nc1cccnc1)N1CCN(C2CCOc3c2ccc(F)c3F)CC1` (centres unmarked) [Example 35, 4-(7,8-Difluoro-3,4-dihydro-2H-chromen-4-yl)-N-(pyridine-3-yl)piperazine-1-carboxamide], the IC50 on FAAH [1] and at FAAH [2] was below 0.1 µM each time.
Take `O=C(Nc1cccnc1)N1CCN(C2CCOc3cc(C(F)(F)F)ccc32)CC1` (centres unmarked) [Example 17, N-Pyridine-3-yl-4-[7-(trifluoromethyl)-3,4-dihydro-2H-1-benzopyran-4-yl]piperazine-1-carboxamide]: the IC50 on FAAH [1] and at FAAH [2] was below 0.1 µM in each case.
`O=C(Nc1cccnn1)N1CCN(C2CCOc3cc(C(F)(F)F)c(F)cc32)CC1` (centres unmarked) [Example 12, N-Pyridazin-3-yl-4-[6-fluoro-7-(trifluoromethyl)-3,4-dihydro-2H-1-benzopyran-4-yl]piperazine-1-carboxamide]: the figures for the IC50 on FAAH [1] and on FAAH [2] were 0.1 to 1 µM and below 0.1 µM, respectively.
